The source made the active and inactive calls.
How the values were obtained:
[1] = NIH-3T3 fibroblast cytotoxicity, dose response, cytotoxicity control, cell-based, fluorescence, Alamar Blue, secondary assay (AID 2327); type: functional;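 further: NIH-3T3 mouse fibroblasts cultured with fluconazole at 8 µg/mL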
[2] = fluconazole-exposed Candida albicans growth modulators – fluorescence, retest, confirmation (AID 2467); type: functional, cell-based
[3] = molecular target: G-protein coupled receptor 55 (Homo sapiens, UniProt Q9Y2T6); assay: inhibition of LPI-stimulated GPR55 beta-arrestin translocation – imaging, U2OS, beta-arrestin-GFP, LPI agonist, primary screen (AID 2013); type: functional;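 further: antagonist potency measured as reduced agonist-driven arrestin aggregation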
[4] = Trypanosoma cruzi growth suppression in host cells – NIH3T3 host cells, beta-gal luminescence, confirmation (AID 2044); type: functional, cell-based;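 further: intracellular parasites grown in NIH/3T3 mouse fibroblasts as host cells; luminescent beta-galactosidase reporter signal from transgenic T. cruzi replicating inside host cells; inhibitors lower the luminescence signal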
[5] = NIH3T3 cell viability loss – ATP luminescence, mouse fibroblasts, counter-screen, dose response (AID 2010); type: functional, cell-based;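 further: cells exposed to compound for about 90 hours before reading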
[6] = molecular target: T1, Ubiquitin-conjugating enzyme E2 N (Homo sapiens, UniProt P61088); type: functional
T1 sequence (P61088 whole entry): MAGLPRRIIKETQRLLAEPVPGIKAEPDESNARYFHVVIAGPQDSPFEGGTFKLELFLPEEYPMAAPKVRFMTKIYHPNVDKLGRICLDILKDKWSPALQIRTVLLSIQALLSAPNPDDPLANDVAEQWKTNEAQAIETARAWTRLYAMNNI

[7] = molecular target: DNA damage-inducible transcript 3 protein (Mus musculus, UniProt P35639); type: functional, Cricetulus griseus
[8] = molecular target: X-box-binding protein 1 (Homo sapiens, UniProt P17861); type: functional, Cricetulus griseus;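 further: confirmatory dose-response counter-screen serving a CHOP assay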
[9] = tested on: INS1; assay: INS-1E survival protection against cytokine death – cell-based, luminescence, retest, dose response (AID 449756); type: functional; conditions: Rattus norvegicus;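 further: cell death triggered by IL-1 beta plus TNF-alpha plus IFN-gamma mixture; protective hits raise ATP signal compared with cytokine alone wells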
[10] = reduction of Shn3 3'UTR-driven luciferase in osteoblasts – cell-based, Clone20 osteoblasts, firefly luciferase, cherry-picked, dose response (AID 624132); type: functional;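 further: firefly luciferase luminescence from reporter carrying the Shn3 3'UTR in osteoblasts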
[11] = loss of viability in HepG2 cells – cell-based, CellTiter-Glo, cherry-picked, cytotoxicity control for Shn3 inhibitor project, dose response (AID 624134); type: functional
[12] = non-specific 3'UTR reporter inhibition in Clone20-Shn3RL – cell-based, Renilla luciferase, cherry-picked, counter-screen for Shn3 inhibitor project, dose response (AID 624133); type: functional
[13] = A549 cell cytotoxicity, dose response, cytotoxicity control, plate reader, cherry-pick, antagonist series (AID 743412); type: functional, cell-based
[14] = toxicity toward HepG2 liver cells – cell-based, plate reader, cherry-pick, antagonist series, cytotoxicity control, dose response (AID 743416); type: functional
[15] = blockers of bursicon-stimulated LGR2 cAMP reporter – cell-based, HEK293, CRE-luciferase reporter, cherry pick, set 2, dose response (AID 743343); type: functional;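 further: transfected cells were stimulated with diluted bursicon conditioned medium after compound addition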
[16] = blockade of melanocortin 4 receptor signaling – cell-based, plate reader, cherry pick, counter-screen for LGR2 antagonist project, dose response (AID 743444); type: functional;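 further: transfected HEK 293 cells stimulated with alpha-MSH peptide; potency of inhibitors of the alpha-MSH evoked signal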
[17] = viability loss in HEK293 cells – cell-based, plate reader, cherry-picked samples, cytotoxicity control, dose response (AID 743446); type: functional
[18] = cells
[19] = molecular target: Coagulation factor XII (Homo sapiens, UniProt P00748); type: functional;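 further: activated factor XIIa alpha cleaving a fluorogenic AMC peptide substrate; inhibitor potency from loss of enzyme activity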
[20] = molecular target: T2, Dual specificity protein phosphatase 3 (Homo sapiens, UniProt P51452); assay: VHR1 phosphatase inhibitors, primary screen, biochemical, absorbance, uHTS (AID 1654)
[21] = molecular target: T2, Dual specificity protein phosphatase 3; assay: VHR1 phosphatase inhibitors, biochemical (AID 1878)
[22] = molecular target: T3, Dual specificity protein phosphatase 6 (Rattus norvegicus, UniProt Q64346); assay: inhibition of rat DUSP6 enzyme activity – biochemical, in vitro, primary screen (AID 425)
T3 sequence (Q64346 whole entry): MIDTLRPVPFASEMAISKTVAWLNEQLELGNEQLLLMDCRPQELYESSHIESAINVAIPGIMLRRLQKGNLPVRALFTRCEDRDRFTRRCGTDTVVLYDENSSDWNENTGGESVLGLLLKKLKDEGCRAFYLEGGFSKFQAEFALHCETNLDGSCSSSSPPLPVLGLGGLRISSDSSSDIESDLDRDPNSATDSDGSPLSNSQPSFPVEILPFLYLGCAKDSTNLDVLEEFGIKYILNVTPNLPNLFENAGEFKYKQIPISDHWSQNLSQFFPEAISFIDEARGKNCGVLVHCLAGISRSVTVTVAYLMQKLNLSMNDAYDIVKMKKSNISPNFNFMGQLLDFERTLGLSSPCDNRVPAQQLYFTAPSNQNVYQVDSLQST

[23] = Vero E6 cell cytotoxicity, dose response, cytotoxicity control for non-replicating M. tuberculosis project, secondary assay (AID 492998); type: functional, VeroE6; conditions: Vero C1008
[24] = molecular target: E3 ubiquitin-protein ligase XIAP (Homo sapiens, UniProt P98170); assay: Counter Screen using XIAP-Bir3 for Chemical Antagonists of Bir1/2 domains of IAP-family anti-apoptotic proteins. [Related pubchem assays (depositor defined):AID1018, AID1449, AID1514, AID1638, AID1749, AID1750, AID488957, AID488963]
[25] = molecular target: T4, Carboxy-terminal domain RNA polymerase II polypeptide A small phosphatase 1 (Homo sapiens, UniProt Q9GZU7); assay: CTDSP1 inhibitors, concentration-response, biochemical, absorbance readout, ultra-high-throughput screen actives (AID 540297); type: functional
T4 sequence (Q9GZU7 whole entry): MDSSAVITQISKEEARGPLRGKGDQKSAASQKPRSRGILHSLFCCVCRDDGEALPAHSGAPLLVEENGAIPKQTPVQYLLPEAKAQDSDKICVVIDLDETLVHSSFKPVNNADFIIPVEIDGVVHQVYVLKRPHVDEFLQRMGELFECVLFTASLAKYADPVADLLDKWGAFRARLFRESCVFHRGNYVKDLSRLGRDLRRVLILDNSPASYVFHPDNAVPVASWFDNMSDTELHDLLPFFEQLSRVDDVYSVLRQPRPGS

[26] = molecular target: T5, Bcl-2-related protein A1 (Mus musculus, UniProt Q07440); type: functional;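 further: confirmatory dose–response counterscreen on Bfl-1, used to check hits from a UBC13 polyubiquitin inhibitor campaign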
T5 sequence (Q07440 whole entry): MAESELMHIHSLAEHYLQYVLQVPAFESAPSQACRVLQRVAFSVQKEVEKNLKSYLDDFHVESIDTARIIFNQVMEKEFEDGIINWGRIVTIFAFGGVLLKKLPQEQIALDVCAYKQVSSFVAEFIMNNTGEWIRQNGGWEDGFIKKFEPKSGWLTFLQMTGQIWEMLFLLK

[27] = molecular target: T1, Ubiquitin-conjugating enzyme E2 N; type: functional; remark: listed apart in the source
[28] = molecular target: T6, Tyrosine-protein phosphatase non-receptor type 22 (Homo sapiens, UniProt Q9Y2R2); assay: SAR LYP1 Fluorescent Assay using pCAP substrate for In Vitro dose response studies - Set 2. [Related pubchem assays (depositor defined):AID1779, AID1784, AID2135, AID449727]; type: functional
T6 sequence (Q9Y2R2 whole entry): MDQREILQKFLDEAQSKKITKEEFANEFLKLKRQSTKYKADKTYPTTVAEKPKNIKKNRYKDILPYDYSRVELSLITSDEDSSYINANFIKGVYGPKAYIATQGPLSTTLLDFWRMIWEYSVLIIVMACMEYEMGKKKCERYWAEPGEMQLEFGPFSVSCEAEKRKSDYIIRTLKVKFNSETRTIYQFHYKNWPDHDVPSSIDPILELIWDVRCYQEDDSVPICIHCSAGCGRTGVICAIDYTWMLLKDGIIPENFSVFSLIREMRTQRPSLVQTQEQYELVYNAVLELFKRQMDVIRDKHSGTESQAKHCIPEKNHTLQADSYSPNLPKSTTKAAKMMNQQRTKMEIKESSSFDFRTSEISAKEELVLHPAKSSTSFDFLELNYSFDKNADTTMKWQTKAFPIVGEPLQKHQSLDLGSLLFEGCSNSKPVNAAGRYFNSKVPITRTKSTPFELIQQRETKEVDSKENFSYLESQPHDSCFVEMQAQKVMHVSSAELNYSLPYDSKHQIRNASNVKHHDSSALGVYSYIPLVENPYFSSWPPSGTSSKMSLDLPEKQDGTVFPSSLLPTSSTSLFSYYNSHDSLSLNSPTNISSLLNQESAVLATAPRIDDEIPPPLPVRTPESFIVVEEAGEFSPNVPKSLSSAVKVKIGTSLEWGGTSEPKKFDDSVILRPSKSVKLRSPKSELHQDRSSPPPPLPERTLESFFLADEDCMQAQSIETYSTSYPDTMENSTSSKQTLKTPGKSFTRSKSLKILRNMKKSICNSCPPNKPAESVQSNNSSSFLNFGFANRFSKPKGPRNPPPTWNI

[29] = molecular target: Tyrosine-protein phosphatase non-receptor type 12 (Homo sapiens, UniProt Q05209); assay: SAR Selectivity Analysis of small molecule inhibitors of PEST using pCAP in a fluorescence assay. [Related pubchem assays (depositor defined):AID1779, AID1784, AID2135]; type: functional
[30] = molecular target: T6, Tyrosine-protein phosphatase non-receptor type 22; assay: SAR LYP1 Fluorescent Assay using OMFP substrate for In Vitro dose response studies - Set 3. [Related pubchem assays (depositor defined):AID1779, AID1784, AID2140, AID2686]; type: functional
[31] = molecular target: T7, Tyrosine-protein phosphatase non-receptor type 7 (Homo sapiens, UniProt P35236); assay: inhibition of hematopoietic tyrosine phosphatase HePTP – biochemical, set 2, SAR follow-up (AID 449736); type: functional
T7 sequence (P35236 whole entry): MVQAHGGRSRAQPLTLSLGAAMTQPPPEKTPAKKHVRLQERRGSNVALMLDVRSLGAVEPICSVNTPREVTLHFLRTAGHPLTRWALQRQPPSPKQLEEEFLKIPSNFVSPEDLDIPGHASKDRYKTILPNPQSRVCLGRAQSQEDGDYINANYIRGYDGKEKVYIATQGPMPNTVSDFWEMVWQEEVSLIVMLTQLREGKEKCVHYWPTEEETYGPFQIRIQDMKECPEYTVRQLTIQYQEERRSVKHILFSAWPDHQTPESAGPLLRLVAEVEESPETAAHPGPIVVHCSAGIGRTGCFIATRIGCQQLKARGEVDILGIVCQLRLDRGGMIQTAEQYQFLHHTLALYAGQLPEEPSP

[32] = molecular target: T6, Tyrosine-protein phosphatase non-receptor type 22; assay: inhibition of lymphoid tyrosine phosphatase LYP – biochemical, pCAP fluorogenic substrate, fluorescence, set 3, SAR follow-up (AID 449727); type: functional
[33] = molecular target: T6, Tyrosine-protein phosphatase non-receptor type 22; assay: SAR LYP1 Fluorescent Assay using OMFP substrate for In Vitro dose response studies - Set 2. [Related pubchem assays (depositor defined):AID1779, AID1784, AID2140, AID449726, AID488869]; type: functional
[34] = molecular target: Sphingosine 1-phosphate receptor 4 (Homo sapiens, UniProt O95977); assay: Late-stage fluorescence dose response cell-based assay to identify agonists of the Sphingosine 1-Phosphate Receptor 4 (S1P4): purchased compounds EC50. [Related pubchem assays (depositor defined):AID1509, AID1523, AID1563, AID1686, AID1701, AID1801]; type: functional
Chain of Sphingosine 1-phosphate receptor 4 (O95977 whole entry): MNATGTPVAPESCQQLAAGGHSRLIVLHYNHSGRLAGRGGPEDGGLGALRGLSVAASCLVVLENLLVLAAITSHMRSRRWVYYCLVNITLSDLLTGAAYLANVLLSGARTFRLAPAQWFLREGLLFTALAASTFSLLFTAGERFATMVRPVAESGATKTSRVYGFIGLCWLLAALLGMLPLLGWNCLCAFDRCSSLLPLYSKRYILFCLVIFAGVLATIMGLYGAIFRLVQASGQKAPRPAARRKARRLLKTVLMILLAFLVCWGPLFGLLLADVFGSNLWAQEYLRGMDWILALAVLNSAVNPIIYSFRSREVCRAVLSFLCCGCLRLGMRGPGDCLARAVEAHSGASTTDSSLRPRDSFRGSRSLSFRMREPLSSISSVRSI

T2 sequence (P51452 whole entry): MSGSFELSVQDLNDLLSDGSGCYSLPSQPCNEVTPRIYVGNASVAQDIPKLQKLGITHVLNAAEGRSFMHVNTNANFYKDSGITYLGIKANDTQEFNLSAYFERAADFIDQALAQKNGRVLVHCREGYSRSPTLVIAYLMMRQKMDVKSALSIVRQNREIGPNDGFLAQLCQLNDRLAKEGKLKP
Chain of E3 ubiquitin-protein ligase XIAP (P98170 whole entry, the tested form may be a part): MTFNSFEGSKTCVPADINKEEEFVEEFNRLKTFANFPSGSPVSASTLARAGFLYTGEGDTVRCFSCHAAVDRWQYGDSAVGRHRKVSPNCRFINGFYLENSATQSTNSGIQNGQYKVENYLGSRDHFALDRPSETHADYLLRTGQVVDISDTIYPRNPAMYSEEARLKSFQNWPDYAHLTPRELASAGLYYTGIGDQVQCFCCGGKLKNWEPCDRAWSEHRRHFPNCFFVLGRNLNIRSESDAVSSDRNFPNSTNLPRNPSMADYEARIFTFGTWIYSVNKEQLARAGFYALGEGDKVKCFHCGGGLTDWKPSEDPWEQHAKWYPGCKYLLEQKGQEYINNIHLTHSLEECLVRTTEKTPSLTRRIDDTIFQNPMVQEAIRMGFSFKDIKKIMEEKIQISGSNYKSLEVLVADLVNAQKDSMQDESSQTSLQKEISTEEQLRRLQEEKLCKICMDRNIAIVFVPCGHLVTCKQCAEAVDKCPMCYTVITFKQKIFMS
Chain of DNA damage-inducible transcript 3 protein (P35639 whole entry): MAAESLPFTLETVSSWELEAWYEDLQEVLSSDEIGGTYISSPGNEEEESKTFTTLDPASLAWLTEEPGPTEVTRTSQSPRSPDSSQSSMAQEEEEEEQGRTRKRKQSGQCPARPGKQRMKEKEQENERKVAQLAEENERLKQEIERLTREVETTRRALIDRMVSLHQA
Chain of X-box-binding protein 1 (P17861 whole entry): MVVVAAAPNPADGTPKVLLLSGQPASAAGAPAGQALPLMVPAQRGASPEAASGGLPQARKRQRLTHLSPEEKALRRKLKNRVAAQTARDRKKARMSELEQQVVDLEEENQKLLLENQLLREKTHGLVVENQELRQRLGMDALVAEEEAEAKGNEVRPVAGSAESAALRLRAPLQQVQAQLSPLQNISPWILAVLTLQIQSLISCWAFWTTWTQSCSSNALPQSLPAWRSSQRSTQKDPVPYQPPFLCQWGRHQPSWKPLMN
Chain of Coagulation factor XII (P00748 20-372 limits assumed): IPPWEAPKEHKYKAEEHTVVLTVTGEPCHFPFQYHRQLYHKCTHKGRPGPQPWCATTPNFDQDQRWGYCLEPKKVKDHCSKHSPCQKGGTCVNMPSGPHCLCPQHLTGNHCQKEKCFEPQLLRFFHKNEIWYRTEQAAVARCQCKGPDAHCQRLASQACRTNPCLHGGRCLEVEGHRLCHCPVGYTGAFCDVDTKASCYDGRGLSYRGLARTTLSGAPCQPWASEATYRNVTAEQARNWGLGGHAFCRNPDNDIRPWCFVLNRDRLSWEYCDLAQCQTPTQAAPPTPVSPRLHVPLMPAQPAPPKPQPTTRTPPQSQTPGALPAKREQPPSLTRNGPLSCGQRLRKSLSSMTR
Chain of Coagulation factor XII (P00748 373-615 limits assumed): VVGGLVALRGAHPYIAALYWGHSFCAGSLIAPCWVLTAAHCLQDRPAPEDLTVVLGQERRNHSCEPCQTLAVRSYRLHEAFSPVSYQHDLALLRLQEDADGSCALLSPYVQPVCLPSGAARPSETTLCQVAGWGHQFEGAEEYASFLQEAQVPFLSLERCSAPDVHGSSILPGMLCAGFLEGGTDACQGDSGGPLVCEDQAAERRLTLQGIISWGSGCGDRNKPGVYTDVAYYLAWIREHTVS
Chain of G-protein coupled receptor 55 (Q9Y2T6 whole entry): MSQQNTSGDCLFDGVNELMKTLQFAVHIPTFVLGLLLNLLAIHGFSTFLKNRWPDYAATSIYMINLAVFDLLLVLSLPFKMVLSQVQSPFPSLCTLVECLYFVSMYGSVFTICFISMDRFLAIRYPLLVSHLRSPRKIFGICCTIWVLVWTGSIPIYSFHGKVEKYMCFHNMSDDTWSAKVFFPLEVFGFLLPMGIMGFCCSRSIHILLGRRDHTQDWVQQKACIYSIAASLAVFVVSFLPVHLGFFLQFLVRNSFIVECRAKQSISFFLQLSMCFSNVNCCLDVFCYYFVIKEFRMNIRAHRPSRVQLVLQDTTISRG
Chain of Tyrosine-protein phosphatase non-receptor type 12 (Q05209 whole entry): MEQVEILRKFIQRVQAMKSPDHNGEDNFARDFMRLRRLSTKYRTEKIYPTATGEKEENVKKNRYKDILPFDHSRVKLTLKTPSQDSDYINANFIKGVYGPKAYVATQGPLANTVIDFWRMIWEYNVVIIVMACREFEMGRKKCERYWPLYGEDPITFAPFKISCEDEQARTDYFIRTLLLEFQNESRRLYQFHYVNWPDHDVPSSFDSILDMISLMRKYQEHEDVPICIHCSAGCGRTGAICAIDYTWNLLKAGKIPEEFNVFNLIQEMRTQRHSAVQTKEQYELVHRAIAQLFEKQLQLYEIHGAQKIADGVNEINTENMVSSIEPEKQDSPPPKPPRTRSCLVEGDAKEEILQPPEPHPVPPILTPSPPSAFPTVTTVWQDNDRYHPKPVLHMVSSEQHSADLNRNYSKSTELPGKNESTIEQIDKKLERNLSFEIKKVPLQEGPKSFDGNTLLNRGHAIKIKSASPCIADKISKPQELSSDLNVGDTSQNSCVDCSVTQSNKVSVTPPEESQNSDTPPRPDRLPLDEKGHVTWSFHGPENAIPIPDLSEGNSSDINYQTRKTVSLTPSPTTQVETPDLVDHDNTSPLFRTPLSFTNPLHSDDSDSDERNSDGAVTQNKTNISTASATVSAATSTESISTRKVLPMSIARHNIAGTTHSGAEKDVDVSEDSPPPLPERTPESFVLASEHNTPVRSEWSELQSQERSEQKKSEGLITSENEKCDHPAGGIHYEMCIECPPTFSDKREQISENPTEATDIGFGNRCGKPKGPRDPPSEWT

For `Cc1ccc(Nc2nc(NCc3ccco3)c3ccccc3n2)cc1.Cl`, the EC50 [1] was > 160 µM (inconclusive), the EC50 [2] was 3.24 µM (active) and the IC50 [3] was 5.21 µM (active). For the same molecule, the EC50 [4] was < 0.1 µM (active), the EC50 [5] was > 30 µM (not active) and the IC50 [6] was > 20 µM (inactive). The “Absolute IC50 (CHOP)” value [7] was 10 µM, the “Absolute IC50 (XBP1)” value [8] was 10 µM and the AC50 [9] was 3.65 µM (active). For the same molecule, the AC50 [10] was 9.84 µM (active), the AC50 [11] was 12.6 µM (active) and the AC50 [12] was 3.31 µM (active). The AC50 [13] was 10.9 µM (active), the AC50 [14] was 7.35 µM (active) and the AC50 [15] was 9.43 µM (active). For the same molecule, the AC50 [16] was 12.3 µM (active), the AC50 [17] was 16.1 µM (active) and the EC50 [18] was 0.094 µM (active).

With `CCCCOC(=O)c1ccc(NC(=O)C(=O)NCc2ccco2)cc1` the IC50 [19] was > 50 µM (inactive).

In the case of `Cc1snc2sc(C(=O)c3ccc(F)cc3)c(N)c12`, the IC50 [20] is reported as < 1.23 µM (inactive), the IC50 [21] is reported as 2.03 µM (active) and the IC50 [22] is reported as > 158 µM (not active).

In the case of `N=C(NOC(=O)c1cccc2ccccc12)c1cccnc1`, the CC50 [23] is reported as 15 µM (active).

For `Cc1coc2c(C)c3oc(=O)c(CCC(=O)N[C@@H](C)C(=O)N[C@@H](Cc4ccccc4)C(=O)O)c(C)c3cc12`, the IC50 [24] was > 20 µM (inactive) and the IC50 [25] was 3.6 µM (active).

For `CCCCn1c(=O)[nH]c(=O)c2c1nc(-c1ccc(C#N)cc1)n2C1CCCC1`, the IC50 [26] was > 20 µM (inactive), the IC50 [6] was 18.7 µM (active) and the IC50 [27] was 1.99 µM (active).

In the case of `N#C/C(=C\c1ccc(OCc2ccc(F)cc2)cc1)C(=O)Nc1cccc(C(=O)O)c1`, the IC50 [28] is reported as 5.52 µM (active), the IC50 [29] is reported as 0.916 µM (active) and the IC50 [30] is reported as 0.967 µM (active). For the same molecule, the IC50 [31] was 2.03 µM (active), the IC50 [32] was 6.93 µM (active) and the IC50 [33] was 5.27 µM (active). The IC50 [25] was 4.13 µM (active).

With `Cc1ccc(OCc2cc3ccc(C)c(C)c3nc2Cl)c([N+](=O)[O-])n1` the EC50 [34] was > 50 µM (inactive).

From ChEMBL document CHEMBL1201862, “PubChem BioAssay data set” (2004)
